Results: US20240130988A1, “Use of stilbene compounds in the preparation of anti-tumor drugs” (Guangzhou AnHao Pharmaceutical Technology CO., LTD., priority 2022, published 2024)

Experiments:
[1] = tested on: human liver cancer Bel7404; test: Compound 3 combined with lenvatinib, human liver cancer Bel7404 xenograft in nude mice; type: in vivo; conditions: po: lenvatinib 10 mg/kg, compound 3 400 mg/kg, combination 10 + 400
Source text: Experimental method: The model of human liver cancer Bel7404 transplant tumor in nude mice was established by subcutaneously inoculating human liver cancer Bel7404 cell lines into the armpits of nude mice. Cells were inoculated in an amount of 1×10^6, and after formation of the transplanted tumors by inoculation, the cells were passed 3 generations in nude mice before use. The vigorous growth of tumor tissue was cut into approximate 1.5 mm^3, and homogenized under sterile conditions, to prepare 1×10^7/mL of cell suspension. 0.1 mL of cell suspension was subcutaneously inoculated into the right armpit of nude mice. For transplanted tumors in nude mice, the diameter of the transplanted tumor was measured with vernier caliper. After the tumor grew to 100 mm^3, the animals were randomly divided into groups, with 6 animals in each group. Using the method of measuring tumor diameter, the anti-tumor effect of test compound was dynamically observed. Compound 3 was orally administered at 400 mg/kg, once a day, for three weeks; lenvartinib was also orally administered at 10 mg/kg, once a day, for two weeks. The measurement frequency of tumor diameter was once every three days. The animals in the negative control group were orally given an equal amount of physiological saline. The effect of combined medicaments was evaluated based on the Q value calculated by the Jin's formula: […]
Ea+b represents the tumor inhibitory rate of the combined medicaments, while Ea and Eb represent the tumor inhibitory rates of medicament A and medicament B, respectively. For example, the Q value of 0.85-1.15 means additive action (+), and the Q value of >1.15 means synergistic action (++).

[2] = tested on: human lung cancer A549; test: Compound 8 combined with carboplatin, human lung cancer A549 xenograft in nude mice; type: in vivo; conditions: ip: carboplatin 10 mg/kg, compound 8 200 mg/kg, combination 10 + 200
Source text: Experimental method: The model of human lung cancer A549 transplant tumor in nude mice was established by subcutaneously inoculating human lung cancer A549 cell lines into the armpits of nude mice. Cells were inoculated in an amount of 1×10^6, and after formation of the transplanted tumors by inoculation, the cells were passed 3 generations in nude mice before use. The vigorous growth of tumor tissue was cut into approximate 1.5 mm^3, and homogenized under sterile conditions, to prepare 1×10^7/mL of cell suspension. 0.1 mL of cell suspension was subcutaneously inoculated into the right armpit of nude mice. For transplanted tumors in nude mice, the diameter was measured with vernier caliper. After the tumor grew to 100 mm^3, the animals were randomly divided into groups, with 6 mice in each group. Using the method of measuring tumor diameter, the anti-tumor effect of test compound was dynamically Observed. Compound 8 was administered at 200 mg/kg by intraperitoneal injection, once every other day, for three weeks; carboplatin was administered at 10 mg/kg by intraperitoneal injection, once every other day, for three weeks. The measurement frequency of tumor diameter was once every three days. The dosage by volume was 0.1 mL/20 g. The mice in the negative control group were given an equal amount of physiological saline by intravenous injection. The effect of combined medicaments was evaluated based on the Q value calculated by Jin's formula: […]
Ea+b represents the tumor inhibitory rate of the combined medicaments, while Ea and Eb represent the tumor inhibitory rates of medicament A and medicament B, respectively. For example, the Q value of 0.85-1.15 means additive action (+), while the Q value of >1.15 means synergistic action (++).

[3] = tested on: human lung cancer 95D and human liver cancer Bel7404; test: In vivo vascular necrosis of tumors, PCNA immunohistochemistry; design: species or system nude mice; conditions: 400 mg/kg
[4] = tested on: ocular surface neovascularization; test: Neovascularization of ocular surface in rats (NaOH cornea model); type: in vivo, SD rats; conditions: 50 μL/eye, 3 times/day, 10 days
Experimental: Four SD rats, regardless of gender, were subjected to single eye modeling, with a total of four eye models. One eye was used as a blank control (untreated group), one eye was used as a model control, one eye was used as treatment group 1, and one eye was used as treatment group 2.
The rats were anesthetized with pentobarbital sodium (25-30 mg/(kg, intraperitoneal injection), and two drops of oxybuprocaine hydrochloride eye drops were administrated to both eyes for ocular surface anesthesia. 30 μL of NaOH solution (1 mol/L) was placed with a pipette on a dry filter paper with a diameter of approximate 3 mm for 10 seconds. The moistened circular filter paper was gently applied to the center of the cornea (covering the corneoscleral margin) of the model eye, and a tight fit was kept for suitable time. The filter paper was removed, and then physiological saline was used to wash the eye, which was rinsed with a needle for 1 minute. After operation, ofloxacin eye ointment was applied to prevent infection (3 times/day, for 5 days).
On the 5th day (D5), neovascularization began to appear, and D5 was the first day of administrating the test compound (d1). Three eye drops were administered daily for 10 consecutive days (d10). […] After completion of the experiment, the rats were euthanized.
Blank control group (untreated group): no any treatment, no modeling, no administration. […]

[5] = tested on: human lung cancer 95D and human liver cancer Bel7404; test: Tumor necrosis in vivo, HE staining; design: species or system nude mice; conditions: 400 mg/kg
Experimental: Well growing solid tumors (human lung cancer […]) and human liver cancer Bel7404) were cut into uniform small pieces of approximate 2-3 mm under sterile conditions, and subcutaneously inoculated into the right armpit of each nude mouse using a cannula. 14 days after inoculation, each mouse was treated with compound 6 by oral administration at a dosage of 400 mg/kg (in a dosage by volume of 0.5 mL/20 g body weight), and compound 6 was prepared as a suitable solution with sterile normal saline. At different time points (4 h, 24 h) after administration, the nude mice were killed, and the tumor tissue was dissected and fixed with 10% formalin. The pathological sections were made, followed by HE staining and taking photos, to observe the internal necrosis and cell proliferation within the tumors.

For `COc1cc(/C=C(/C(=O)O)c2cc(OC)c(OC)c(OC)c2)cc(OC)c1` [Compound 3, (E)-3-(3,5-dimethoxyphenyl)-2-(3,4,5-trimethoxyphenyl)acrylic acid], which “RTV (d 21)” value [1] is on record?
Its value is 3.54 ± 1.87.

And the “Terminal weight” value [1]?
The value was 22.4 ± 0.6 g.

And the “Tumor inhibitory rate %” value [1]?
The value was 68.47%.

How did the “RTV (d 21)” value [2] turn out when `COc1cc(/C(=C\c2cc(O)c(OC)c(F)c2)C(=O)O)cc(OC)c1OC` [Compound 8, (E)-3-(5-fluoro-3-hydroxy-4-methoxyphenyl)-2-(3,4,5-trimethoxyphenyl)acrylic acid] was run?
The value was 4.85 ± 1.37.

What about the “Tumor inhibitory rate %” value [2] of the same compound?
The value was 62.32%.

What does the source list for `COc1ccc(/C=C(/C(=O)O)c2cc(OC)c(OC)c(OC)c2)cc1O` [Compound 6, (E)-3-(3-hydroxy-4-methoxyphenyl)-2-(3,4,5-trimethoxyphenyl)acrylic acid]?
Damage to the blood vessels of tumors (PCNA immunohistochemistry) ([3]; 4 h after oral administration): only some vascular endothelial cells proliferated in the tumor tissues; Damage to the blood vessels of tumors (PCNA immunohistochemistry) ([3]; 24 h after oral administration): massive blood flow blockade and necrosis of tumor tissues; Vascularization area ([4]; high-dose group, eye drops 25 mg/mL): significantly decreased; Neovascularization of the ocular surface ([4]; treatment groups, eye drops 10 or 25 mg/mL, vs model group): reduced compared to the model group; Internal necrosis within the tumors (HE staining) ([5]; 4 h after oral administration): necrosis began to appear within the tumor tissues; Internal necrosis within the tumors (HE staining) ([5]; 24 h after oral administration): massive necrosis
